Consider 1 molecule from PMC7778606, “Development of the phenylpyrazolo[3,4-d]pyrimidine-based, insulin-like growth factor receptor/Src/AXL-targeting small molecule kinase inhibitor” (Theranostics, 2021).

As a reminder, the IC50 is the concentration at which inhibition is half-maximal.

The test system of data set [1] is H1944 and A549 xenograft tumors. The experiment in a line: NSCLC xenograft tumor model. The conditions noted are these: 80 mg/kg. The data set is classed as in vivo, NOD/SCID mice. As for the experimental part: All animal experiments were performed according to protocols approved by the Seoul National University Institutional Animal Care and Use Committee. Mice were fed standard mouse chow and water ad libitum and housed in temperature- and humidity-controlled facilities with a 12-h light/12-h dark cycle. For xenograft experiments, H1944 and A549 cells (1×10^6 cells/spot, diluted in equal amounts of PBS and Matrigel) were subcutaneously injected into the right flank of 6-week-old non-obese diabetic-severe combined immunodeficiency (NOD/SCID) mice. After the tumor volume reached 50-150 mm^3, the mice were randomly grouped and treated with vehicle [10% DMSO in 60% polyethylene glycol (PEG) 400 solution] or LL6 (80 mg/kg) 6 days per week for 2 weeks. Tumor growth was determined by measuring the short and long diameters of the tumor with a caliper, and body weight was measured once or twice per week to monitor toxicity. Additionally, to evaluate the effect of LL6 on mutant Kras-driven lung tumorigenesis, 2-month-old Kras^G12D/+ transgenic mice were randomized and treated with vehicle or LL6 (80 mg/kg) for 8 weeks. The mice were euthanized, and tumor formation was evaluated and compared with that of the vehicle-treated control group. Microscopic evaluations of the H&E-stained lung tissue were also performed to measure mean tumor number (N) and volume (V) in a blinded fashion. The number and size of tumors were calculated in five sections uniformly distributed throughout each lung. In both animal experiments, the tumor volume and burden of each sample were calculated using the following formulas: Tumor volume (mm^3) = (short diameter)^2 × (long diameter) × 0.5; Tumor burden (mm^3) = number of tumors × the average of tumor volume.

The subject of the next data set is PC9 cells. The data set can be described thus: MTT assay, viability of PC9 cells. The data set is classed as cell-based. The following applies: Homo sapiens, PC-9, 48 h, two days, 5% FBS, read-out: IC50 against the viability. As for the experimental part: (§1) Cells were seeded into 96-well plates at a density of 1-2 × 10^3 cells/well and incubated for 24 h. Cells were treated with vehicle or various concentrations of test compounds for two (PC9 and PC9/ER cells) or three (other cells) days. Cells were further incubated with MTT solution (final concentration of 500 μg/mL) for 4 h at 37 °C. The formazan products were dissolved in dimethyl sulfoxide (DMSO), and the absorbance was measured at 570 nm. The data are presented as a percentage of the control group.
Background: Formazan colour is commonly taken as a measure of viable cells.

A further data set concerns IGF-1R. The data set can be described thus: Western blot, phosphorylation of IGF-1R in H1944 and A549 cells. The data set is classed as cell-based, human. The following applies: 2.5 μM. As for the experimental part: Before harvesting, the cells were stimulated with 10% FBS for 20 min. Total cell lysates were prepared with modified radioimmunoprecipitation assay lysis buffer (50 mM Tris-HCl [pH 7.4], 150 mM NaCl, 1 mM EDTA, 0.25% sodium deoxycholate, 1% Triton X-100, 100 mM NaF, 5 mM Na3VO4, 1 mM PMSF, 1 μg/mL aprotinin, 1 μg/mL leupeptin, and 1 μg/mL pepstatin). Equal amounts of protein (20 μg) were subjected to 8% SDS-PAGE and electrically transferred onto polyvinylidene difluoride membranes (Bio-Rad Laboratories, Hercules, CA, USA). Membranes were blocked with blocking buffer (3% BSA in Tris-buffered saline containing 0.1% Tween-20 [TBST]) for 1 h at room temperature. The membranes were incubated with primary antibodies diluted in 3% BSA in TBST (1:1,000) overnight at 4 °C, washed multiple times with TBST, and incubated with secondary antibodies diluted in 3% nonfat dry milk in TBST (1:5,000) for 1 h at room temperature. The membranes were washed multiple times with TBST and visualized using an enhanced chemiluminescence detection kit (Thermo Fisher Scientific). Densitometric analysis was performed using ImageJ software.
(Immunoblotting shows a protein as a band on a membrane.)

The subject of another data set is NSCLC cells. The experiment in a line: Transwell migration assay. The format is cell-based, human. The conditions noted are these: concentration-dependent, 8-12 h after treatment.
In the next data set the test system is H1299/CsR cells. The data set can be described thus: MTT assay, viability of cisplatin-resistant H1299/CsR cells. The format is cell-based. The following applies: Homo sapiens, NCI-H1299, 72 h, three days, read-out: IC50 against the viability. An excerpt:
(§2) Human lung cancer cell lines (A549, H1299, H1993, H1944, H226B, H226Br, H460, H522, HCC15, and PC9), a diploid human lung fibroblast cell line (Wi38), and the Lewis lung carcinoma (LLC) cell line were purchased from the American Type Culture Collection (ATCC, Manassas, VA, USA) or kindly provided by Dr. John V. Heymach (MD Anderson Cancer Center, Houston, TX, USA). Human retinal pigment epithelial (RPE) cells were kindly provided by Dr. Jeong Hun Kim (College of Medicine, Seoul National University, Seoul, Republic of Korea). HT-22 cells were provided by Dr. Dong Gyu Jo (College of Pharmacy, Sungkyunkwan University, Suwon, Republic of Korea). Lung cancer cells were cultured in RPMI 1640 medium supplemented with 10% fetal bovine serum (FBS) and antibiotics (Welgene, Gyeongsan-si, Republic of Korea). LLC, HT-22, and Wi38 cells were maintained in DMEM supplemented with 10% FBS and antibiotics. RPE cells were maintained in DMEM/F12 supplemented with 10% FBS and antibiotics. […]
(§3) Cells were seeded into 96-well plates at a density of 1-2 × 10^3 cells/well and incubated for 24 h. […] The formazan products were dissolved in dimethyl sulfoxide (DMSO), and the absorbance was measured at 570 nm. […]

The subject of the next data set is H1299/PmR cells. The experiment in a line: MTT assay, viability of pemetrexed-resistant H1299/PmR cells. The data set is classed as cell-based. The following applies: Homo sapiens, NCI-H1299, 72 h, three days, read-out: IC50 against the viability.
Description: as §2, §3

The test system of the next data set is H460 cells. The experiment in a line: MTT assay, viability of H460 cells. The format is cell-based. The conditions noted are these: Homo sapiens, NCI-H460, 72 h, three days, read-out: IC50 against the viability. As for the experimental part: as §1
For the next data set, the system named is PC9/ER cells. The data set can be described thus: MTT assay, viability of erlotinib-resistant PC9/ER cells. The data set is classed as cell-based. The conditions noted are these: Homo sapiens, PC-9/ER, 48 h, two days, 5% FBS, read-out: IC50 against the viability.
Description: as §2, §3

The subject of the next data set is H1299 cells. The experiment in a line: MTT assay, viability of H1299 cells. The format is cell-based. The following applies: Homo sapiens, NCI-H1299, 72 h, three days, read-out: IC50 against the viability. As for the experimental part: as §1
For another data set, the target named is T1, AURKA (Homo sapiens, UniProt O14965).
T1 construct: purchased DiscoverX KINOMEscan
T1 sequence (O14965 whole entry): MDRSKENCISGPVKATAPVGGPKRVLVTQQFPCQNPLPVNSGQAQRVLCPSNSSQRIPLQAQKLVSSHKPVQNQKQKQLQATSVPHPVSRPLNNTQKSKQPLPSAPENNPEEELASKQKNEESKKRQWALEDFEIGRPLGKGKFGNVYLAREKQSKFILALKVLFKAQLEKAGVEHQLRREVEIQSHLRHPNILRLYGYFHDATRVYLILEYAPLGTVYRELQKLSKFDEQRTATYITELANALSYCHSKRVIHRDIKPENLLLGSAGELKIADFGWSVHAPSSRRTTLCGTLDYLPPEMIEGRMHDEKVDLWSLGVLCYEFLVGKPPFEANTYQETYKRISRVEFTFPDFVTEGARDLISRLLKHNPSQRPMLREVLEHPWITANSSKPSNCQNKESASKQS
The data set can be described thus: KINOMEscan competition binding assay. The conditions noted are these: LL6 at 10 μM; read-out: Percent Control. Here is the method:
[…] To briefly summarize, Kd was measured by a competition binding assay that quantitatively measures the ability of a compound to compete with an immobilized ligand. […] […] See more details in the cited references [39]-[42] and see also at www.discoverx.com.

The test system of another data set is H1993 cells. The data set can be described thus: MTT assay, viability of H1993 cells. The data set is classed as cell-based. The following applies: Homo sapiens, NCI-H1993, 72 h, three days, read-out: IC50 against the viability. As for the experimental part: as §1

A value given as a limit tells only on which side of the number the result lay.

In the case of `Nc1ncnc2c1c(-c1ccc(Cl)cc1)nn2CCn1cc(COc2ccc(Nc3nccc(Nc4cnc5ccccc5c4)n3)cc2)nn1` [LL6], in data set [1] (H1944 and A549 xenografts, 6 days per week for 2 weeks), the “tumor growth and weight” value is listed as “significantly reduced”. Also, in data set [1] (Western blot of xenograft tumors), the “expression of phosphorylated IGF-1R and Src in tumors” value is on record as “substantially suppressed”. For the same molecule, the body weight result in [1] (xenograft-bearing mice) was “minimal changes”. Further, the IC50 with PC9 cells is > 10 µM; in the data set with H1299/CsR cells, 1.07 µM; with H1299/PmR cells, 1.62 µM; in the data set with H460 cells it was 3.43 µM; with PC9/ER cells, 8.61 µM; in the data set on H1299 cells, 2.93 µM. For the same molecule, the IC50 in the data set on H1993 cells came to 7.79 µM. Also, the “activation (phosphorylation) of IGF-1R” value in the data set on IGF-1R is recorded as “efficiently suppressed”. In addition, in the data set with NSCLC cells, the “migration of NSCLC cells” value was “effectively suppressed”. Further, at AURKA, the remaining binding at 10 µM was 48%.
